Laboratory results: patent US9498483B2, “2,3,5-trisubstituted thiophene compounds and uses thereof” (priority 2010, dated 2016)

Experiments:
[1] = test system: HCV replicon I389luc-ubi-neo/NS3-3′/ET in ET (Huh-lucubineo-ET) cells; experiment: Replicon assay (Biological Example 2), luciferase readout; assay type: cell-based; conditions: Hepatitis C virus
Procedure, shortened: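 EC50 values come from Hill fits of % inhibition of replicon-driven firefly luciferase, relative to no-compound wells. Compounds were serially diluted (10 points, 3-fold, 0.1 nM–50 μM final, 0.5% DMSO) onto ET replicon cells and read after 48 h.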

HCV polymerase = target: T1, HCV polymerase (Hepatitis C virus genotype 1b, UniProt Q9WMX2); experiment: Polymerase assay of Biological Example 1 (IC50 values of Table 3); assay type: biochemical; conditions: IC50 values of Table 3, polymerase assay of Biological Example 1; read-out: NS5B-enzyme3
T1 construct: (His)6 (C); made in house; host or cells: XL-1 cells (E. coli, by own knowledge)

[2] = ET cells, luciferase activity 48 hours after compound

| Structure (SMILES) | IC50 [1, 2] | IC50 (HCV polymerase) | IC50 ([1]; between 100 nM and 5.0 uM) |
| --- | --- | --- | --- |
| Cc1ccc(-c2cc(N3C(=O)CN(S(=O)(=O)c4ccc(N5C[C@H]6C[C@@H]5CO6)nc4)C[C@H]3C3CCCCC3)c(C(=O)O)s2)cc1 [Compound 289, 3-{(R)-2-Cyclohexyl-4-[(1R,4R)-6-(2-oxa-5-aza-bicyclo[2.2.1]hept-5-yl)-pyridine-3-sulfonyl]-6-oxo-piperazin-1-yl}-5-p-tolyl-thiophene-2-carboxylic acid] | ≤ 100 nM | 1 nM |  |
| CCc1ccc(S(=O)(=O)N2CC(=O)N(c3cc(-c4ccccc4)sc3C(=O)O)C(C3CCCCC3)C2)cc1 (single isomer, unassigned) [Compound 55, 3-[2-Cyclohexyl-4-(4-ethyl-benzenesulfonyl)-6-oxo-piperazin-1-yl]-5-phenyl-thiophene-2-carboxylic acid] |  | 71 nM | 100 to 5000 nM |
| CC(C)(C)C#Cc1cc(N2C(=O)C(O)CCC2C2CCCCC2)c(C(=O)O)s1 (stereo not drawn) [Compound 313, 3-(6-Cyclohexyl-3-hydroxy-2-oxo-piperidin-1-yl)-5-(3,3-dimethyl-but-1-ynyl)-thiophene-2-carboxylic acid] | ≤ 100 nM | 31.5 nM |  |
| CC(C)(C)C#Cc1cc(N2C(=O)CN(S(=O)(=O)c3ccc4oc(=O)[nH]c4c3)C[C@H]2C2CCCCC2)c(C(=O)O)s1 [Compound 252, 3-[(R)-2-Cyclohexyl-6-oxo-4-(2-oxo-2,3-dihydro-benzooxazole-5-sulfonyl)-piperazin-1-yl]-5-(3,3-dimethyl-but-1-ynyl)-thiophene-2-carboxylic acid] |  | 2 nM | 100 to 5000 nM |
| Cc1nc(S(=O)(=O)N2CC(=O)N(c3cc(C#CC(C)(C)C)sc3C(=O)O)[C@H](C3CCCCC3)C2)cn1C [Compound 248, 3-[(R)-2-Cyclohexyl-4-(1,2-dimethyl-1H-imidazole-4-sulfonyl)-6-oxopiperazin-1-yl]-5-(3,3-dimethyl-but-1-ynyl)-thiophene-2-carboxylic acid] | ≤ 100 nM | 2 nM |  |
| Cc1ccc(-c2cc(N3C(=O)CN(S(=O)(=O)c4ccc(N5CCOCC5)nc4)C[C@H]3C3CCCCC3)c(C(=O)O)s2)cc1 [Compound 187, 3-[(R)-2-Cyclohexyl-4-(6-morpholin-4-yl-pyridine-3-sulfonyl)-6-oxo-piperazin-1-yl]-5-p-tolyl-thiophene-2-carboxylic acid] | ≤ 100 nM | 1 nM |  |
| O=C(O)c1sc(-c2ccc(C(F)(F)F)cc2)cc1N1C(=O)CCCC1C1CCCCC1 (stereo not drawn) [Compound 117, 3-(2-Cyclohexyl-6-oxo-piperidin-1-yl)-5-(4-trifluoromethyl-phenyl)-thiophene-2-carboxylic acid] | ≥ 5000 nM | 739 nM |  |
| CC(C)(C)C#Cc1cc(N2C(=O)[C@](C)(CC#N)OC[C@H]2C2CCCCC2)c(C(=O)O)s1 [Compound 312, 3-((2S,5R)-2-Cyanomethyl-5-cyclohexyl-2-methyl-3-oxo-morpholin-4-yl)-5-(3,3-dimethyl-but-1-ynyl)-thiophene-2-carboxylic acid] | ≤ 100 nM | 2 nM |  |
| CC(C)(C)C#Cc1cc(N2C(=O)CN(S(=O)(=O)C3CC3)C[C@H]2C2CCCCC2)c(C(=O)O)s1 [Compound 245, 3-((R)-2-Cyclohexyl-4-cyclopropanesulfonyl-6-oxo-piperazin-1-yl)-5-(3,3-dimethyl-but-1-ynyl)-thiophene-2-carboxylic acid] |  | 5 nM | 100 to 5000 nM |
| CC(C)(C)C#Cc1cc(N2C(=O)C(N)CC[C@H]2C2CCCCC2)c(C(=O)O)s1 (stereo partly drawn) [Compound 340, 3-((S)-3-Amino-6-cyclohexyl-2-oxo-piperidin-1-yl)-5-(3,3-dimethyl-but-1-ynyl)-thiophene-2-carboxylic acid] | ≤ 100 nM | 8 nM |  |
| CC(C)(C)C#Cc1cc(N2C(=O)CN(S(=O)(=O)c3cccnc3)C[C@H]2C2CCCCC2)c(C(=O)O)s1 [Compound 192, 3-[(R)-2-Cyclohexyl-6-oxo-4-(pyridine-3-sulfonyl)-piperazin-1-yl]-5-(3,3-dimethyl-but-1-ynyl)-thiophene-2-carboxylic acid] | ≤ 100 nM | 3 nM |  |
| O=C(O)c1sc(-c2ccc(F)cc2)cc1N1C(=O)CN(S(=O)(=O)c2ccc(N3CCCC3)nc2)C[C@H]1C1CCCCC1 [Compound 232, 3-[(R)-2-Cyclohexyl-6-oxo-4-(6-pyrrolidin-1-yl-pyridine-3-sulfonyl)-piperazin-1-yl]-5-(4-fluoro-phenyl)-thiophene-2-carboxylic acid] | ≤ 100 nM | 1 nM |  |
| O=C(O)c1sc(-c2ccccc2)cc1N1C(=O)CN(S(=O)(=O)c2ccc(F)cc2)CC1C1CCCCC1 (stereo not drawn) [Compound 109, 3-[2-Cyclohexyl-4-(4-fluoro-benzenesulfonyl)-6-oxo-piperazin-1-yl]-5-phenyl-thiophene-2-carboxylic acid] |  | 30 nM | 100 to 5000 nM |
| CCc1ccc(S(=O)(=O)N2CC(=O)N(c3cc(C#CC(C)(C)C)sc3C(=O)O)[C@H](C3CCCCC3)C2)cc1 [Compound 256, 3-[(R)-2-Cyclohexyl-4-(4-ethyl-benzenesulfonyl)-6-oxo-piperazin-1-yl]-5-(3,3-dimethyl-but-1-ynyl)-thiophene-2-carboxylic acid] | ≤ 100 nM | 1 nM |  |
| O=C(O)c1sc(-c2ccc(Cl)cc2)cc1N1C(=O)CN(S(=O)(=O)c2ccc(N3CCCCC3)cc2)C[C@H]1C1CCCCC1 [Compound 233, 5-(4-Chloro-phenyl)-3-[(R)-2-cyclohexyl-6-oxo-4-(4-piperidin-1-yl-benzenesulfonyl)-piperazin-1-yl]-thiophene-2-carboxylic acid] | ≤ 100 nM | 2 nM |  |
| O=C(O)c1sc(-c2ccc(F)cc2)cc1N1C(=O)CN(S(=O)(=O)c2ccc(N3CCOCC3)nc2)C[C@H]1C1CCCCC1 [Compound 189, 3-[(R)-2-Cyclohexyl-4-(6-morpholin-4-yl-pyridine-3-sulfonyl)-6-oxo-piperazin-1-yl]-5-(4-fluoro-phenyl)-thiophene-2-carboxylic acid] | ≤ 100 nM | 1 nM |  |
| O=C(O)c1sc(-c2ccc(Cl)cc2)cc1N1C(=O)CN(S(=O)(=O)c2ccc(N3CCOCC3)nc2)C[C@H]1C1CCCCC1 [Compound 199, 5-(4-Chloro-phenyl)-3-[(R)-2-cyclohexyl-4-(6-morpholin-4-yl-pyridine-3-sulfonyl)-6-oxo-piperazin-1-yl]-thiophene-2-carboxylic acid] | ≤ 100 nM | 2 nM |  |
| C[C@@H]1COCCN1c1ccc(S(=O)(=O)N2CC(=O)N(c3cc(-c4ccccc4)sc3C(=O)O)[C@H](C3CCCCC3)C2)cn1 [Compound 225, 3-{(R)-2-Cyclohexyl-4-[6-((R)-3-methyl-morpholin-4-yl)-pyridine-3-sulfonyl]-6-oxo-piperazin-1-yl}-5-phenyl-thiophene-2-carboxylic acid] | ≤ 100 nM | 1 nM |  |
| O=C(O)c1sc(-c2ccccc2)cc1N1C(=O)CC(O)CC1C1CCCCC1 (stereo not drawn) [Compound 12] |  | 45 nM | 100 to 5000 nM |
| CCC1(CC)CN(c2ccc(S(=O)(=O)N3CC(=O)N(c4cc(-c5ccccc5)sc4C(=O)O)[C@H](C4CCCCC4)C3)cn2)CCO1 [Compound 218, 3-{(R)-2-Cyclohexyl-4-[6-(2,2-diethyl-morpholin-4-yl)-pyridine-3-sulfonyl]-6-oxo-piperazin-1-yl}-5-phenyl-thiophene-2-carboxylic acid] | ≤ 100 nM | 1 nM |  |
| C[C@@H]1CCCN1c1ccc(S(=O)(=O)N2CC(=O)N(c3cc(-c4ccc(Cl)cc4)sc3C(=O)O)[C@H](C3CCCCC3)C2)cc1 [Compound 234, 5-(4-Chloro-phenyl)-3-{(R)-2-cyclohexyl-4-[4-((R)-2-methyl-pyrrolidin-1-yl)-benzenesulfonyl]-6-oxo-piperazin-1-yl}-thiophene-2-carboxylic acid] | ≤ 100 nM | 1 nM |  |
| O=C(O)c1sc(-c2ccccc2)cc1N1C(=O)CN(S(=O)(=O)c2ccc(N3CCC(F)(F)CC3)nc2)CC1C1CCCCC1 (stereo not drawn) [Compound 95, 3-[2-Cyclohexyl-4-(4,4-difluoro-3,4,5,6-tetrahydro-2H-[1,2′]bipyridinyl-5′-sulfonyl)-6-oxo-piperazin-1-yl]-5-phenyl-thiophene-2-carboxylic acid] | ≤ 100 nM | 5 nM |  |
| O=C(O)c1sc(-c2ccc(Cl)cc2)cc1N1C(=O)CN(S(=O)(=O)c2ccc(N3CCCC3)cc2)C[C@H]1C1CCCCC1 [Compound 231, 5-(4-Chloro-phenyl)-3-[(R)-2-cyclohexyl-6-oxo-4-(4-pyrrolidin-1-yl-benzenesulfonyl)-piperazin-1-yl]-thiophene-2-carboxylic acid] | ≤ 100 nM | 1 nM |  |
| N[C@H]1CC(=O)N(c2cc(-c3ccccc3)sc2C(=O)O)[C@H](C2CCCCC2)C1 [Compound 28, 3-((2S,4R)-4-Amino-2-cyclohexyl-6-oxo-piperidin-1-yl)-5-phenyl-thiophene-2-carboxylic acid] | ≥ 5000 nM | 226 nM |  |
| O=C(O)c1sc(-c2ccccc2)cc1N1C(=O)CN(S(=O)(=O)c2ccc(OC(F)(F)F)cc2)CC1C1CCCCC1 (stereo not drawn) [Compound 53] |  | 24 nM | 100 to 5000 nM |
| O=C(O)c1sc(-c2ccccc2)cc1N1C(=O)CN(S(=O)(=O)c2ccc(-c3ccn[nH]3)nc2)C[C@H]1C1CCCCC1 [Compound 209, 3-{(R)-2-Cyclohexyl-6-oxo-4-[6-(2H-pyrazol-3-yl)-pyridine-3-sulfonyl]-piperazin-1-yl}-5-phenyl-thiophene-2-carboxylic acid] |  | 1 nM | 100 to 5000 nM |
| N[C@H]1CC(=O)N(c2cc(-c3ccccc3)sc2C(=O)O)[C@@H](C2CCCCC2)C1 [Compound 23, 3-((2R,4R)-4-Amino-2-cyclohexyl-6-oxo-piperidin-1-yl)-5-phenyl-thiophene-2-carboxylic acid] | ≥ 5000 nM | 245 nM |  |
